Reference: patent publication US7067248B2 (priority 2002, dated 2006)

Experiments:
[1] = tested on: VV; type: cell-based, vaccinia virus
[2] = tested on: VV; details: cited from earlier work
[3] = tested on: orthopoxvirus; details: cited from earlier work

## c1cnc2c(c1)ccc1ncccc12 [1,7-phenanthroline]
[1]
  VV replication: no effect

## α-amanitin
[2]
  Phenotype of VV replication: abortive-late phenotype

## Nc1ccn(C[C@@H](CO)OCP(=O)(O)O)c(=O)n1 [Cidofovir]
[3]
  Anti-orthopoxvirus activity: potent anti-orthopoxvirus inhibitor

## CN1C(=O)/C(=N\NC(N)=S)c2ccccc21 [methisazone, N-methylisatin β-thiosemicarbazone]
[3]
  Anti-orthopoxvirus activity: effective at inhibiting orthopoxvirus infections in cultured cells

## pepstatin A
[1]
  VV replication: no effect

## NC(=O)CI [iodoacetamide]
[1]
  Inhibition of VV replication (FIG. 12): potent inhibitors of VV replication
  VV replication: completely blocked

## c1cnc2c(c1)ccc1cccnc12 [1,10-phenanthroline]
[1]
  Inhibition of VV replication (FIG. 12): potent inhibitors of VV replication
  VV replication: completely blocked
